Like-named read-outs stand apart in the source and are kept apart here.
Tests used:
[1] = test system: female double transgenic (dtg) rats; experiment: Mean arterial pressure by telemetry in double transgenic rats; type: in vivo, rat; settings: for max MAP decrease: versus control group
Procedure: Female double transgenic (dtg) rats, which are transgenic for human renin and angiotensin (see, e.g., Bohlender et al., J AM SOC NEPHROL 11:2056 (2000)) were used. All animals were maintained under identical conditions and had free access to normal pelleted rat chow and water. Rats were initially treated with enalapril (1 mg/kg/day), starting 3 weeks after birth and continuing for 2 months. After approximately two weeks following cessation of enalapril treatment, the double transgenic rats are hypertensive, with mean arterial blood pressures in the range of 160-170 mmHg.
Transmitter implantation—The rats were anesthetized using isoflurane (via inhalation, 2-3%) The pressure transmitter was implanted under aseptic conditions into the peritoneal cavity with the sensing catheter placed in the descending aorta below the renal arteries pointing upstream. The transmitter was sutured to the abdominal musculature, the skin closed, and the rats were individually housed in a cage, placed on a telemetry receiver pad to enable collection of the blood pressure data during recovery from anesthesia and thereafter. The rats were singly caged for the duration of the recording of telemetry data.
Telemetry-System—Telemetry units were obtained from Data Sciences (St. Paul, Minn.). […] The tip of the catheter was filled with a viscous gel that prevents blood reflux and was coated with an antithrombogenic film. The implants (length=2.5 cm, diameter=1.2 cm) weighed 9 g and have a typical battery life of 6 months. A receiver platform (model RPC-1 from Data Sciences) connected the radio signal to digitized input that was sent to a dedicated personal computer. Arterial pressures were calibrated by using an input from an ambient-pressure reference (APR-1, Data Sciences). Systolic, mean, and diastolic blood pressures were expressed in millimeter of mercury (mmHg).
Drug administration—For oral dosing, aliskiren was dissolved in 0.5% methocel and administered via feeding tubes. The compound was dosed in a single bolus of 3 mg/5 ml/kg or 30 mg/5 ml/kg. After dosing, the rat was returned to the cage. Blood pressure data were collected up to 7 days after oral dosing.
For transdermal delivery, aliskiren was dissolved in 100% DMSO to be applied in a single application of 250 μl of solution. The rat was lightly sedated under 2.5% isoflurane anesthesia, and its back was shaved over a 4 cm^2 area. The animal was returned to the cage to recover from anesthesia. Twenty-four hours later, the rat was lightly sedated under 2.5% isoflurane anesthesia, and the shaved area disinfected with 3 passes of ethanol.
After evaporation of the ethanol, a volume of 250 μl of 100% DMSO only, or of the compound dissolved in a 100% DMSO solution was applied over the shaved area using a micropipette. After complete evaporation of the DMSO solution (within 5 min after application), an occlusive transparent, waterproof film (OpSite) was taped to the back of the animal over the shaved area, and a jacket was fitted on the animal. Isoflurane inhalation was stopped, and the animal individually caged. Blood pressure data was collected up to 5 days after application of the compound/DMSO solution.
Hemodynamic measurements—For oral delivery, double transgenic rats with implanted pressure transmitters were dosed by oral gavage with a single bolus of vehicle (5 ml/kg) or of the test substance (30 mg/5 ml/kg) (n=6 per group).
For transdermal delivery, double transgenic rats with implanted pressure transmitters were dosed with a single application of vehicle (250 μl of 100% DMSO; n=4) or of the test substance (10 mg in 250 μl of 100% DMSO, i.e. 36 mg/kg; n=5).
The mean arterial blood pressure was continuously monitored. The effect of the test substance is expressed as maximal decrease of mean arterial pressure (MAP) in the treated group versus the control group. […]

[2] = AUC of aliskiren after PO or TD delivery in telemetrized female dTG rats; type: in vivo, rat; settings: for AUC(0-t): double transgenic (dTG, human renin and angiotensin), rat, read-out: AUC24 h
Procedure: The rat was lightly sedated under 2.5% isoflurane anesthesia, and its back was shaved over a 4 cm^2 area.
After complete evaporation of the DMSO solution (within 5 min after application), an occlusive transparent, waterproof film (OpSite) was taped to the back of the animal over the shaved area, and a jacket was fitted on the animal. Isoflurane inhalation was stopped, and the animal individually caged.

[3] = test system: plasma renin activity (PRA); experiment: Plasma renin activity (PRA) after TD delivery in double transgenic rats; type: in vivo; settings: Rattus norvegicus, dTG rats, 4 h after delivery
Procedure: Pharmacokinetics and biomarkers—A blood sample (0.3 ml) was taken by tail bleed or jugular intravenous 4 h and 24 h after TD delivery to determine compound levels and plasma renin activity (PRA).

[4] = Bioavailability of aliskiren after oral and transdermal administration in Sprague-Dawley rats (plasma LC-MS/MS); type: in vivo, rat; settings: male SD rats; for AUC: Sprague-Dawley, rat, plasma
Procedure: Male Sprague-Dawley rats (300-400 g body weight) were purchased from Charles River Canada Corporation (188 Rue LaSalle, St-Constant, QC, J5A 1Y2, Canada). […] For oral dosing, aliskiren was dissolved in 0.5% methocel and administered via feeding tubes. The compound was dosed in a single bolus of 3 mg/5 ml/kg or 25 mg/5 ml/kg. For intravenous (IV) […] dosing, aliskiren was dissolved in 60% PEG 200 and administered in a single bolus at 0.5 mg/1 ml/kg. For transdermal delivery, aliskiren was dissolved in 100% DMSO, and applied (single application of 250 μl of solution) onto the shaved skin of the rat. The rat was lightly sedated under 2.5% isoflurane anesthesia, and its back was shaved over a 4 cm^2 area. The animal was returned to its cage to recover from anesthesia. Twenty-four hours later, the rat was lightly sedated under 2.5% isoflurane anesthesia, and the shaved area was disinfected with three passes of ethanol. After evaporation of the ethanol, a volume of […] of 100% DMSO only, or of the compound dissolved in a 100% DMSO solution was applied over the shaved area using a micropipette. After complete evaporation of the DMSO solution (within 5 min after application), an occlusive transparent, waterproof film (OpSite) was taped to the back of the animal over the shaved area, and a jacket was fitted on the animal. Isoflurane inhalation was stopped, and the animal individually caged. The jacket was removed four hours after application of the compound solution.
A blood sample (0.4 ml) was taken by tail or jugular vein bleed for the determination of compound levels, 1 h, 2 h, 4 h, 6 h, 8 h, 10 h and 24 h after either oral gavage or application on the skin of the compound dissolved in 100% DMSO solution. The animal was euthanized after the 24 h time point. […] The plasma was separated by centrifugation and stored at −20° C. pending analysis. Plasma samples were analyzed for aliskiren concentrations using liquid chromatography coupled to mass spectrometry (LC-MS/MS).

[5] = TD, 36 mg/kg single application

- AUC ([4]; topical, TD, 2.9 mg/kg): 0.084 µM·h
- AUC ([4]; topical, TD, 29 mg/kg): 0.25 µM·h
- AUC ([4]; PO, 3 mg/kg): 0.0021 µM·h
- AUC ([4]; PO, 25 mg/kg): 0.058 µM·h
- F ([4]; PO, 3 mg/kg): 0.1%
- F ([4]; PO, 25 mg/kg): 0.43%
- F ([4]; TD, 2.9 mg/kg): 5.4%
- F ([4]; TD, 29 mg/kg): 1.6%
Compound: COCCCOc1cc(C[C@@H](C[C@H](N)[C@@H](O)C[C@H](C(=O)NCC(C)(C)C(N)=O)C(C)C)C(C)C)ccc1OC [aliskiren, (2S,4S,5S,7S)-5-amino-N-(2-carbamoyl-2,2-dimethylethyl)-4-hydroxy-7-{[4-methoxy-3-(3-methoxypropoxy)phenyl]methyl}-8-methyl-2-(propan-2-yl)nonanamide]
- ABC36 h ([1]; PO, 30 mg/kg single bolus): 630 mmHg * hr
- duration (of MAP reduction) ([1]; PO, 30 mg/kg single bolus): 1.5 days
- max MAP decrease ([1]; PO, 30 mg/kg single bolus): 40 mmHg
- ABC36 h [1, 5]: 1213 mmHg * hr
- duration (of MAP reduction) ([1]; TD, 36 mg/kg single application, 36 mg/kg): >3 days
- max MAP decrease [1, 5]: 40 mmHg
- increase of AUC, transdermal versus oral delivery ([2]; at the dose used (TD 36 mg/kg vs PO 30 mg/kg)): 70 fold
- AUC(0-t) ([2]; blood, topical, TD, 36 mg/kg): 1.5 µM·h
- AUC(0-t) ([2]; in vivo, PO, 30 mg/kg): < 0.021 µM·h
- inhibition at 36 mg/kg [3]: 97%

— patent US20110237541A1, “TRANSDERMALLY ADMINISTERED ALISKIREN” (priority 2008, published 2011)
